Laboratory results published in patent publication US7358044B2, “Prophylactic and therapeutic benefits of a new class of immune stimulating peptides” (priority 2003, dated 2008).
Marks after values point to notes of the source that are not given here.

Assays:
[1] = test system: NK cells; test: NK cell activity of splenocytes from treated mice, chromium-release assay; type: in vivo
Description: The results are depicted in Table 2.

[2] = test system: J774A.1 macrophages; test: Macrophage activation, NO production (Greiss reagent); type: cell-based
Experimental: J774A.1 macrophages (ATCC TIB67, 5×10^4 viable cells/well) were cultured in Dulbecco's Modified Eagle Medium (DMEM, high glucose)+10% FBS+100 U/ml penicillin+100 μg/ml streptomycin for 24 hr prior to treatment addition. NO production was determined colorimetrically using the Greiss reagent 24 hr after experimental treatments. […] Statistical significance was analyzed by comparison of mean values using the Student's t test (unpaired, two-tailed).

[3] = test system: clinical mastitis; test: Clinical mastitis, ICPF versus Polyflex; type: in vivo, bovine
Experimental: Nineteen animals were showing signs of clinical mastitis, i.e. abnormal milk appearance, painful teat, etc. These animals were randomly assigned to either a test or a control group. The control group animals (n=10) were treated according to the dairy's normal practice for treatment of clinical cases of mastitis, i.e. intramuscular injection of Polyflex brand (Fort Dodge Animal Health) of ampicillin (5 mg/lb×3 days). […] The SCC's for the treatment and control animals were compared 30 days later. The means of the pre-treatment test and control groups were determined to not be statistically different and neither were the standard deviations of the two groups statistically different. […] Two animals in the test group were refractory to treatment.

[4] = 0.25 ml i.p. (5 mg ICPF or 20 μg Poly I:C), spleens harvested the following day, mean n = 3 with standard error

Poly I:C was tested, and the “Percent 51Cr released at E:T ratios 50:1” value [1, 4] was 19.1 ± 1.0^b Percent, the “Percent 51Cr released at E:T ratios 100:1” value [1, 4] was 31.5 ± 1.1^b Percent and the “Percent 51Cr released at E:T ratios 200:1” value [1, 4] was 35.3 ± 1.6^b Percent. The “direct activation of NK cells” value ([1]; naive mice, E:T ratios of 200:1, 100:1, and 50:1) was “induced activation of NK cells”.
“ICPF-peptide: Purified peptide from ICPF (RSVSLSYRF)” was tested, and the “induction of NO in combination with LPS” value ([2]; ICPF 100 μg/ml or ICPF-peptide 10 μg/ml with LPS 0-10 μg/ml in the absence of IFN-γ) was “unable to induce NO”, the “amount of NO induced by the minimal stimulatory dose of LPS + IFN-γ” value ([2]; ICPF-peptide 0.1-100 μg/ml, LPS 10 ng/ml + IFN-γ 1-5 U/ml) was “did not modulate the amount of NO” and the “dose of LPS required to induce NO” value ([2]; IFN-γ stimulated macrophages, ICPF 100 μg/ml, ICPF-peptide 10 μg/ml) was “Neither ICPF (100 μg/ml) nor ICPF-peptide (10 μg/ml) altered the dose of LPS required to induce NO”. For the same compound, the “dose of IFN-γ required to induce NO” value ([2]; LPS-stimulated macrophages, ICPF 100 μg/ml, ICPF-peptide 10 μg/ml) was “Neither ICPF (100 μg/ml) nor ICPF-peptide (10 μg/ml) altered the dose of IFN-γ required to induce NO” and the “induction of NO” value ([2]; purified peptide 0.1-100 μg/ml, absence or presence of IFN-γ) was “failed to induce NO”.
With CC1(C)S[C@@H]2[C@H](NC(=O)[C@H](N)c3ccccc3)C(=O)N2[C@H]1C(=O)O [Polyflex, ampicillin] the “animals that showed improvement” value ([3]; 30 days, Polyflex 5 mg/lb x 3 days i.m. (n=10)) was “one” and the “average somatic cell count for the group increased by” value ([3]; Polyflex 5 mg/lb x 3 days i.m., n=10, test period) was 7%.
